Laboratory results as given in ChEMBL document CHEMBL5149969, “Amyloid-β and tau aggregation dual-inhibitors: A synthetic and structure-activity relationship focused review” (Eur J Med Chem, 2021).

Experiments:
[1] = target: T1, Amyloid-beta precursor protein (Homo sapiens, UniProt P05067); experiment: Inhibition of amyloid beta 42 (unknown origin) expressed in Escherichia coli BL21 (DE3) at 10 uM relative to control
[2] = target: T2, Microtubule-associated protein tau (Homo sapiens, UniProt P10636); experiment: Inhibition of Tau (unknown origin) expressed in Escherichia coli BL21 (DE3) at 10 uM relative to control
T2 sequence (P10636 whole entry): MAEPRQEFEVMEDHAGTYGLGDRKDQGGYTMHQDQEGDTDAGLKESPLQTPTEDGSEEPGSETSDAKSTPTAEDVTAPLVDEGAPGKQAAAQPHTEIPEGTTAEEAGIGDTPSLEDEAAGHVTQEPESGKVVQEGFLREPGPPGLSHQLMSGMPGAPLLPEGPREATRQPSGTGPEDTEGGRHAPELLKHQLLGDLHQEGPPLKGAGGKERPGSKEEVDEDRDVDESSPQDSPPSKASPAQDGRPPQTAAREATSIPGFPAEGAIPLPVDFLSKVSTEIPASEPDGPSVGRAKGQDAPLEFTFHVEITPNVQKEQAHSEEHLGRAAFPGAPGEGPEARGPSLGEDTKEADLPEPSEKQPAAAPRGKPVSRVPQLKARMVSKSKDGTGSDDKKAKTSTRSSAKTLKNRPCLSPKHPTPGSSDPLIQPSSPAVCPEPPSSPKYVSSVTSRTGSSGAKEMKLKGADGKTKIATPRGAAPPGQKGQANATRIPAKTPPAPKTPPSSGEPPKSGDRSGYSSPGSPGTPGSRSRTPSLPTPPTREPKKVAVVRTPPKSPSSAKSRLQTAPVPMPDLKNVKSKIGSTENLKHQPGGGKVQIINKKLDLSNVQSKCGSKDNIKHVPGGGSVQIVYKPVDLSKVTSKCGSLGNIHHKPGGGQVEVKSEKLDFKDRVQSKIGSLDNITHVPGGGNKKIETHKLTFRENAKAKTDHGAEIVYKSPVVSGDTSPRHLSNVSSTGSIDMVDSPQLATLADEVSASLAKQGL

[3] = target: T2, Microtubule-associated protein tau; experiment: Inhibition of tau aggregation (unknown origin) at 20 uM relative to control
[4] = Inhibition of amyloid beta 38 secretion transfected in human H4 cells incubated for 20 to 24 hrs by LPECL assay; type: cell-based
[5] = target: T2, Microtubule-associated protein tau; experiment: Inhibition of tau (unknown origin) transfected in human H4 cells incubated for 20 to 24 hrs by LPECL assay; type: cell-based
[6] = target: T2, Microtubule-associated protein tau; experiment: Inhibition of tau depolymerization (unknown origin) transfected in H4 cells incubated for 20 to 24 hrs by LPECL assay; type: cell-based
[7] = target: T1, Amyloid-beta precursor protein; experiment: Inhibition of amyloid beta 42 transfected in human H4 cells incubated for 20 to 24 hrs by LPECL assay; type: cell-based
[8] = target: T1, Amyloid-beta precursor protein; experiment: Inhibition of amyloid beta 42 (unknown origin) at 20 uM relative to control

T1 sequence (P05067 whole entry): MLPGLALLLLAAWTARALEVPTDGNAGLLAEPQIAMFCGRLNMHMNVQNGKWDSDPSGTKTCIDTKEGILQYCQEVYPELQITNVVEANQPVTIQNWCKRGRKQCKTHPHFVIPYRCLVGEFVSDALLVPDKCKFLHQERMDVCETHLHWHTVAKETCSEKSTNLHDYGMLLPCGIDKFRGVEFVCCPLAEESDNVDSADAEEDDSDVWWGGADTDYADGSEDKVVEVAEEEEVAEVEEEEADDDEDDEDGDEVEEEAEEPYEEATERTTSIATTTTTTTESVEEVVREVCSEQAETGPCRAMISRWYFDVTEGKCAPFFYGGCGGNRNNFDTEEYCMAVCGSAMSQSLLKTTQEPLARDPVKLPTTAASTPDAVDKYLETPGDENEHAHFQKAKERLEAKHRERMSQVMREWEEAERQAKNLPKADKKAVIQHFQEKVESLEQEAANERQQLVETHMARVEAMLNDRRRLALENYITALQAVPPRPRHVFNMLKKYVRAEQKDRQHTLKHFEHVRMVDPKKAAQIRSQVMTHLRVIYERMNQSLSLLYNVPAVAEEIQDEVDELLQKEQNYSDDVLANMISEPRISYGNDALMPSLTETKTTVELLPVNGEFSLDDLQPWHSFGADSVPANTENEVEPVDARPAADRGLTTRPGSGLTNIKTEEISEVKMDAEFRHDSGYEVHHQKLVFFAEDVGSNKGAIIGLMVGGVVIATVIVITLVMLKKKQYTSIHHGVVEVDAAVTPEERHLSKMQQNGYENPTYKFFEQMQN

SMILES	inhibition [1]	inhibition [2]	IC50 [4]	IC50 [5]	DC50 [6]	further results
Cc1c(OCc2ccccc2)cccc1N1CCN(CCCNCc2ccccc2)CC1	64.9%	64.5%				
C[n+]1c2c(c(N)c3ccccc31)C(=O)/C(=C/c1cccc(F)c1)CC2						inhibition [3]: 86.3%
Cc1c(OCc2ccccc2)cccc1N1CCN(CCCCCCNCc2ccccc2)CC1	64.2%	64.8%				
C[n+]1c2c(c(N)c3ccccc31)C(=O)/C(=C/c1ccccc1)CC2						inhibition [3]: 71.2%
Cc1c(OCc2ccccc2)cccc1N1CCN(CCCCCCCNc2c3c(nc4ccccc24)CCCC3)CC1	67.4%	70.3%				
COc1cc(/C=C/c2cc(/C=C/c3ccc(O)c(OC)c3)n(CCO)n2)ccc1O			13.6 µM	69 µM	65 µM	
c1ccc(Cn2ccc3c(N4CCN(CCCCNc5c6c(nc7ccccc57)CCCC6)CC4)cccc32)cc1	57.7%	62.9%				
O=S(=O)(c1ccccc1)n1ccc2c(N3CCN(CCCCCCNC4CCN(Cc5ccccc5)CC4)CC3)cccc21	61.8%	52.7%				
Cc1c(OCc2ccccc2)cccc1N1CCN(CCCCCCNc2c3c(nc4ccccc24)CCCC3)CC1	66.9%	64%				
COc1cc(/C=C/c2cc(/C=C/c3ccc(O)c(OC)c3)on2)ccc1O			6.1 µM	> 200 µM	> 200 µM	
COc1cc(/C=C/c2cc(/C=C/c3ccc(O)c(OC)c3)n(-c3ccc(C(C)C)cc3)n2)ccc1O			4.7 µM	18 µM	190 µM	IC50 [7]: > 1 µM
COc1cc(/C=C/C(=O)CC(=O)/C=C/c2ccc(O)c(OC)c2)ccc1O [CURCUMIN]			> 20 µM			
COc1cc(/C=C/c2cc(/C=C/c3ccc(OCC(=O)O)c(OC)c3)on2)ccc1OCC(=O)O			> 40 µM	> 200 µM	> 200 µM	IC50 [7]: > 1 µM
C[n+]1c2c(c(N)c3ccccc31)C(=O)/C(=C/c1cccc(Cl)c1)CC2						inhibition [3]: 98.3%
Nc1c2c(nc3ccccc13)CC/C(=C\c1ccccc1)C2=O						inhibition [3]: 18.7%
Cc1c(OCc2ccccc2)cccc1N1CCN(CCCNC2CCN(Cc3ccccc3)CC2)CC1	55.7%	60.2%				
O=S(=O)(c1ccccc1)n1ccc2c(N3CCN(CCN4CCN(Cc5cccc6c5ccn6Cc5ccccc5)CC4)CC3)cccc21	64.8%	54.6%				
C[n+]1c2c(c(N)c3ccccc31)C(=O)/C(=C/c1cccc3ccccc13)CC2						inhibition [3]: 102%

SMILES	inhibition [1]	inhibition [2]	IC50 [4]	IC50 [5]	DC50 [6]	further results
C[n+]1c2c(c(N)c3ccccc31)C(=O)/C(=C/c1cccc([N+](=O)[O-])c1)CC2						inhibition [8]: 86.4%; inhibition [3]: 98.2%
COc1cc(/C=C/c2cc(/C=C/c3ccc(O)c(OC)c3)n(-c3ccc(Cl)nn3)n2)ccc1O			3.4 µM	54 µM	46 µM	IC50 [7]: > 1 µM
Cc1c(OCc2ccccc2)cccc1N1CCN(CCNC2CCN(Cc3ccccc3)CC2)CC1	54.1%	57.3%				
COc1cc(/C=C/c2cc(/C=C/c3ccc(OCC(=O)OC(C)(C)C)c(OC)c3)on2)ccc1OCC(=O)OC(C)(C)C			> 40 µM	> 200 µM	> 200 µM	IC50 [7]: > 1 µM
COc1cc(/C=C/c2cc(/C=C/c3ccc(O)c(OC)c3)n(-c3cccc([N+](=O)[O-])c3)n2)ccc1O			8.1 µM	5 µM	4 µM	
CN(C)c1ccc2nc3ccc(=[N+](C)C)cc-3sc2c1						inhibition [3]: 80.1%
COc1cc(/C=C/c2cc(/C=C/c3ccc(O)c(OC)c3)[nH]n2)ccc1O [CURCUMIN PYRAZOLE]			5.2 µM	34 µM	17 µM	IC50 [7]: 0.476 µM
C[n+]1c2c(c(N)c3ccccc31)C(=O)/C(=C/c1cccs1)CC2						inhibition [3]: 95.3%
Cc1c(OCc2ccccc2)cccc1N1CCN(CCNc2c3c(nc4ccccc24)CCCC3)CC1	55.7%	58.6%				
Cc1c(OCc2ccccc2)cccc1N1CCN(CCCCNC2CCN(Cc3ccccc3)CC2)CC1	62%	62.8%				
Cc1c(OCc2ccccc2)cccc1N1CCN(CCCCCCCCNc2c3c(nc4ccccc24)CCCC3)CC1	66.7%	60.2%				
COc1cc(/C=C/c2cc(/C=C/c3ccc(O)c(OC)c3)n(-c3cc(Cl)cc(Cl)c3)n2)ccc1O			3.3 µM	10 µM	> 200 µM	
COc1cc(/C=C/c2cc(/C=C/c3ccc(O)c(OC)c3)n(-c3ccccc3)n2)ccc1O			6.3 µM	103 µM	73 µM	IC50 [7]: > 1 µM
COc1cc(/C=C/c2cc(/C=C/c3ccc(O)c(OC)c3)n(C)n2)ccc1O			6.3 µM	13 µM	8 µM	
COc1cc(/C=C/c2cc(/C=C/c3ccc(O)c(OC)c3)n(-c3ccc(C)cc3)n2)ccc1O			6 µM	35 µM	> 200 µM	IC50 [7]: > 1 µM
COc1cc(/C=C/c2cc(/C=C/c3ccc(O)c(OC)c3)n(Cc3ccccc3)n2)ccc1O			7.7 µM	35 µM	73 µM	IC50 [7]: > 1 µM
COc1cc(/C=C/c2cc(/C=C/c3ccc(O)c(OC)c3)n(-c3ccc([N+](=O)[O-])cc3)n2)ccc1O			3.5 µM	1.2 µM	1.1 µM	IC50 [7]: > 1 µM
